# From ChEMBL document CHEMBL4304811, “Development of a Water-Soluble Indolylmaleimide Derivative IM-93 Showing Dual Inhibition of Ferroptosis and NETosis” (ACS Med Chem Lett, 2019)
# Activity calls are given as the source filed them. No cut-off for these calls is given here.
# Columns and labels:
# [1] = molecular target: MAP kinase-activated protein kinase 2 (Homo sapiens) (UniProt P49137); experiment: Binding affinity to wild-type human partial length MAPKAPK2 (V48 to D345 residues) expressed in bacterial expression system assessed as residual binding level at 10 uM by Kinomescan method relative to control
# [2] = molecular target: Mitotic checkpoint serine/threonine-protein kinase BUB1 (Homo sapiens) (UniProt O43683); experiment: Binding affinity to wild-type human partial length BUB1 (Q724 to K1085 residues) expressed in mammalian expression system assessed as residual binding level at 10 uM by Kinomescan method relative to control
# [3] = molecular target: Serine/threonine-protein kinase SIK3 (Homo sapiens) (UniProt Q9Y2K2); experiment: Binding affinity to wild-type human partial length QSK (A90 to L395 residues) expressed in mammalian expression system assessed as residual binding level at 10 uM by Kinomescan method relative to control
# [4] = molecular target: Ephrin type-B receptor 4 (Homo sapiens) (UniProt P54760); experiment: Binding affinity to wild-type human partial length EPHB4 (H585 to G892 residues) expressed in bacterial expression system assessed as residual binding level at 10 uM by Kinomescan method relative to control
# [5] = molecular target: Ribosomal protein S6 kinase alpha-3 (Homo sapiens) (UniProt P51812); experiment: Binding affinity to wild-type human partial length C-terminal RSK2 kinase domain 2 (V402 to S715 residues) expressed in mammalian expression system assessed as residual binding level at 10 uM by Kinomescan method relative to control
# [6] = molecular target: Protein-arginine deiminase type-4 (Homo sapiens) (UniProt Q9UM07); experiment: Inhibition of recombinant human PAD4 at 200 uM using N-alpha-benzoyl-L-arginine ethyl ester as substrate by fluorescence based analysis
# [7] = system: Tyrosine-protein kinase ABL1 (Homo sapiens), P00519 [M351T]; experiment: Binding affinity to human phosphorylated ABL1 M351T mutant (S229 to K512 residues) expressed in mammalian expression system assessed as residual binding level at 10 uM by Kinomescan method relative to control
# [8] = molecular target: Tyrosine-protein kinase Yes (Homo sapiens) (UniProt P07947); experiment: Binding affinity to wild-type human partial length YES (T257 to L543 residues) expressed in bacterial expression system assessed as residual binding level at 10 uM by Kinomescan method relative to control
# [9] = system: Receptor-type tyrosine-protein kinase FLT3 (Homo sapiens), P36888 [N841I]; experiment: Binding affinity to human partial length FLT3 N841I mutant (V592 to Y969 residues) expressed in bacterial expression system assessed as residual binding level at 10 uM by Kinomescan method relative to control
# [10] = molecular target: LIM domain kinase 1 (Homo sapiens) (UniProt P53667); experiment: Binding affinity to wild-type human full length LIMK1 (M1 to D647 residues) expressed in bacterial expression system assessed as residual binding level at 10 uM by Kinomescan method relative to control
# [11] = molecular target: Serine/threonine-protein kinase Nek6 (Homo sapiens) (UniProt Q9HC98); experiment: Binding affinity to wild-type human full length NEK6 (M8 to T313 residues) expressed in bacterial expression system assessed as residual binding level at 10 uM by Kinomescan method relative to control
# [12] = molecular target: Phosphatidylinositol 5-phosphate 4-kinase type-2 beta (Homo sapiens) (UniProt P78356); experiment: Binding affinity to wild-type human full length PIP5K2B (M1 to T416 residues) expressed in bacterial expression system assessed as residual binding level at 10 uM by Kinomescan method relative to control
# [13] = molecular target: Phosphatidylinositol 4-phosphate 5-kinase type-1 gamma (Homo sapiens) (UniProt O60331); experiment: Binding affinity to wild-type human partial length PIP5K1C (M1 to T668 residues) expressed in mammalian expression system assessed as residual binding level at 10 uM by Kinomescan method relative to control
# [14] = molecular target: Mitogen-activated protein kinase kinase kinase 4 (Homo sapiens) (UniProt Q9Y6R4); experiment: Binding affinity to wild-type human partial length MAP3K4 (G1319 to E1608 residues) expressed in bacterial expression system assessed as residual binding level at 10 uM by Kinomescan method relative to control
# [15] = molecular target: Death-associated protein kinase 2 (Homo sapiens) (UniProt Q9UIK4); experiment: Binding affinity to wild-type human full length DAPK2 (M1 to S370 residues) expressed in bacterial expression system assessed as residual binding level at 10 uM by Kinomescan method relative to control
# [16] = molecular target: Serine/threonine-protein kinase Nek9 (Homo sapiens) (UniProt Q8TD19); experiment: Binding affinity to wild-type human partial length NEK9 (P32 to R328 residues) expressed in bacterial expression system assessed as residual binding level at 10 uM by Kinomescan method relative to control
# [17] = molecular target: Cyclin-dependent kinase 2 (Homo sapiens) (UniProt P24941); experiment: Binding affinity to wild-type human full length CDK2 (M1 to L298 residues) expressed in bacterial expression system assessed as residual binding level at 10 uM by Kinomescan method relative to control
# [18] = molecular target: Mitogen-activated protein kinase kinase kinase 11 (Homo sapiens) (UniProt Q16584); experiment: Binding affinity to wild-type human partial length MLK3 (I77 to W399 residues) expressed in bacterial expression system assessed as residual binding level at 10 uM by Kinomescan method relative to control
# [19] = molecular target: Tyrosine-protein kinase SYK (Homo sapiens) (UniProt P43405); experiment: Binding affinity to wild-type human partial length SYK (D354 to N635 residues) expressed in bacterial expression system assessed as residual binding level at 10 uM by Kinomescan method relative to control
# [20] = molecular target: Cytoplasmic tyrosine-protein kinase BMX (Homo sapiens) (UniProt P51813); experiment: Binding affinity to wild-type human full length BMX (M1 to H675 residues) expressed in bacterial expression system assessed as residual binding level at 10 uM by Kinomescan method relative to control
# [21] = molecular target: MAP kinase-interacting serine/threonine-protein kinase 2 (Homo sapiens) (UniProt Q9HBH9); experiment: Binding affinity to wild-type human partial length MKNK2 (G63 to S388 residues) expressed in mammalian expression system assessed as residual binding level at 10 uM by Kinomescan method relative to control
# [22] = molecular target: Mitogen-activated protein kinase kinase kinase 5 (Homo sapiens) (UniProt Q99683); experiment: Binding affinity to wild-type human partial length ASK1 (E648 to S964 residues) expressed in bacterial expression system assessed as residual binding level at 10 uM by Kinomescan method relative to control
# [23] = molecular target: G protein-coupled receptor kinase 4 (Homo sapiens) (UniProt P32298); experiment: Binding affinity to wild-type human full length GRK4 (M1 to C578 residues) expressed in bacterial expression system assessed as residual binding level at 10 uM by Kinomescan method relative to control
# [24] = molecular target: Bone morphogenetic protein receptor type-1A (Homo sapiens) (UniProt P36894); experiment: Binding affinity to wild-type human partial length BMPR1A (Q214 to I532 residues) expressed in bacterial expression system assessed as residual binding level at 10 uM by Kinomescan method relative to control
# Cytoplasmic tyrosine-protein kinase BMX (Homo sapiens), sequence (P51813 whole entry, the tested form may be a part): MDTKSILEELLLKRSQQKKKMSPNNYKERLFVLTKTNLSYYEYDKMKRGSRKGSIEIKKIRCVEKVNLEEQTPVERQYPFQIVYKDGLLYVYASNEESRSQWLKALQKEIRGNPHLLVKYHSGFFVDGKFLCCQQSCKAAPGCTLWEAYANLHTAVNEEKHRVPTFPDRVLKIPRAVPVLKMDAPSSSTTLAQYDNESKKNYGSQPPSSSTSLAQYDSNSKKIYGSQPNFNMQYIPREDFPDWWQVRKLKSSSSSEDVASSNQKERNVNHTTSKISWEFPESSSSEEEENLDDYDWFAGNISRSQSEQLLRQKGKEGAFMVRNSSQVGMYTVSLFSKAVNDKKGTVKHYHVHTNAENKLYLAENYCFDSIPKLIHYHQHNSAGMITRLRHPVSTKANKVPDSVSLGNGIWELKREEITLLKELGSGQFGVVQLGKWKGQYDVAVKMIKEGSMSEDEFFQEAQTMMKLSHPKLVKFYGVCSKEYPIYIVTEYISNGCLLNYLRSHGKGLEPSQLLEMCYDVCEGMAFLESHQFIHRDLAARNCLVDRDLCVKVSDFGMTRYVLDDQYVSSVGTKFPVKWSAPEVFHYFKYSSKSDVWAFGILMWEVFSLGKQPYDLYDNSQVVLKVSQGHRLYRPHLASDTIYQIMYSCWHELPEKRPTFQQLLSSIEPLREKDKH
# Mitotic checkpoint serine/threonine-protein kinase BUB1 (Homo sapiens), sequence (O43683 whole entry, looked up, the tested form may be a part): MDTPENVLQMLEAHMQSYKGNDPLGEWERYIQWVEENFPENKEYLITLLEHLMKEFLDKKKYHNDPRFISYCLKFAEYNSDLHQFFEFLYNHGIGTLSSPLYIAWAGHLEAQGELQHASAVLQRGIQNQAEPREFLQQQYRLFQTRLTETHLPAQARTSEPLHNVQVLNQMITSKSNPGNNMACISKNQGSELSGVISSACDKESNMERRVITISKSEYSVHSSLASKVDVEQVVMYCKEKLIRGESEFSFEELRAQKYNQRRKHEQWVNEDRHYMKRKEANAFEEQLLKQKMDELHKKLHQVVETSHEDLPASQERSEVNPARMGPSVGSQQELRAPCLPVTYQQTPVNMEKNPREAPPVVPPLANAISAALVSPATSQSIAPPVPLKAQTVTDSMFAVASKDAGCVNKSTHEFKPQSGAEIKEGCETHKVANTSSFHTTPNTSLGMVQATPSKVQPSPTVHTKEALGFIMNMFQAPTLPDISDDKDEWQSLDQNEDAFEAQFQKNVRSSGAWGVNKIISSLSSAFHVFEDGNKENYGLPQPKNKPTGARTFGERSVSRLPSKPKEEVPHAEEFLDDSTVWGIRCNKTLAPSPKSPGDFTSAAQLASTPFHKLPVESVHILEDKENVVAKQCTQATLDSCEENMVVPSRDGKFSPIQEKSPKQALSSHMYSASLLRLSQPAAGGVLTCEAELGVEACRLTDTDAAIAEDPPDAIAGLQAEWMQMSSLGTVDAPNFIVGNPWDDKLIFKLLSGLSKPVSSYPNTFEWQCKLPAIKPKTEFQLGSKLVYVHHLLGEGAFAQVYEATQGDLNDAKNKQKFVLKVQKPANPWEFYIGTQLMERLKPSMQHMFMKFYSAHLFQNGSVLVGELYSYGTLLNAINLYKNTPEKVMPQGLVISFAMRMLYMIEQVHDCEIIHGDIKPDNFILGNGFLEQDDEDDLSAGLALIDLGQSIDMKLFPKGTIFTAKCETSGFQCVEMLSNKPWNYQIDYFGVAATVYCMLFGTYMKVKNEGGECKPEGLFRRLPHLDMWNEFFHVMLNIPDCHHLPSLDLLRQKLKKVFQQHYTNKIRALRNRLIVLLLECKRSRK
# Ephrin type-B receptor 4 (Homo sapiens), sequence (P54760 whole entry, the tested form may be a part): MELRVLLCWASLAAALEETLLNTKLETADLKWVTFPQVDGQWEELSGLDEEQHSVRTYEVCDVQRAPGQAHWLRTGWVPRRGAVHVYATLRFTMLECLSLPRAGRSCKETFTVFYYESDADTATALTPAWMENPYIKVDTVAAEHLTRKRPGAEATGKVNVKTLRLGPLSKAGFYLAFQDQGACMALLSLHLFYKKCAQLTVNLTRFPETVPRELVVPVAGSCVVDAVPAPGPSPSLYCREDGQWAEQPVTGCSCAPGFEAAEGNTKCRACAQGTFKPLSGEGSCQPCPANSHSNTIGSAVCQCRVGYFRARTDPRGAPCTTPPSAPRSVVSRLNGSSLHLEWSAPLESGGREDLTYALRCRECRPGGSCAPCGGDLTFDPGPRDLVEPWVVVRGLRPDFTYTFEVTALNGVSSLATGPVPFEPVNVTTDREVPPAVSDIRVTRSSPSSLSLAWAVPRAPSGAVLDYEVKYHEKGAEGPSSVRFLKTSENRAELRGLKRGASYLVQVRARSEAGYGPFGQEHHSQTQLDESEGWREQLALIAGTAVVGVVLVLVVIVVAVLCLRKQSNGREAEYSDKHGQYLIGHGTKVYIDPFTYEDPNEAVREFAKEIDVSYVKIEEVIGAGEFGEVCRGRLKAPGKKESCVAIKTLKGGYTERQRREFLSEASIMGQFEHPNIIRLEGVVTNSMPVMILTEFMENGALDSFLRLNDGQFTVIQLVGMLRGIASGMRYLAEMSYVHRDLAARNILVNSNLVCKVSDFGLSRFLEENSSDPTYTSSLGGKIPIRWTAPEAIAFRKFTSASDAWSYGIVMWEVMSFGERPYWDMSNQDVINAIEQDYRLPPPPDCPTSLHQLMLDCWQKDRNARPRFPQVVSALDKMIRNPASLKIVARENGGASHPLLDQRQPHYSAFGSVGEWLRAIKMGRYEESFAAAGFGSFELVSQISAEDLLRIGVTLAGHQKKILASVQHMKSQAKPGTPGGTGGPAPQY
# Death-associated protein kinase 2 (Homo sapiens), sequence (Q9UIK4 whole entry, looked up, the tested form may be a part): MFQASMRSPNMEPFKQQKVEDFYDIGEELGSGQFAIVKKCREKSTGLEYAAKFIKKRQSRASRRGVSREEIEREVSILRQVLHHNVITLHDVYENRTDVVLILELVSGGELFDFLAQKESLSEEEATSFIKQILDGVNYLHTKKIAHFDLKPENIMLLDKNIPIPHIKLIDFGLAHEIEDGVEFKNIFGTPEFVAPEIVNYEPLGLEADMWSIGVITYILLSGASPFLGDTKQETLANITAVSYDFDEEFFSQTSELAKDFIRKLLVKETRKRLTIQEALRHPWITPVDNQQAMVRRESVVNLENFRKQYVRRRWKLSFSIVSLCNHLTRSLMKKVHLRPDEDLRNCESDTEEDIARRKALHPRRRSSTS
# MAP kinase-activated protein kinase 2 (Homo sapiens), sequence (P49137 whole entry, looked up, the tested form may be a part): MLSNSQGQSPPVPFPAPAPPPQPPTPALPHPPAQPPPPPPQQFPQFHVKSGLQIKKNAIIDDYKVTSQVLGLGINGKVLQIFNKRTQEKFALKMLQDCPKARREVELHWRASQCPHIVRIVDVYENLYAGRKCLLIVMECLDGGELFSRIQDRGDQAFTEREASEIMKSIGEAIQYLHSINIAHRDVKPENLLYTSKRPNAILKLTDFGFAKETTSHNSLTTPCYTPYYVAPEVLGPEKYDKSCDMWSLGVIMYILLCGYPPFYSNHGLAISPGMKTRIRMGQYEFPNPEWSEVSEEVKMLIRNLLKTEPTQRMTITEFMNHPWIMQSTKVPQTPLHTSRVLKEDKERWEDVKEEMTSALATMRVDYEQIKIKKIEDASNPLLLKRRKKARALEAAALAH
# Phosphatidylinositol 5-phosphate 4-kinase type-2 beta (Homo sapiens), sequence (P78356 whole entry, the tested form may be a part): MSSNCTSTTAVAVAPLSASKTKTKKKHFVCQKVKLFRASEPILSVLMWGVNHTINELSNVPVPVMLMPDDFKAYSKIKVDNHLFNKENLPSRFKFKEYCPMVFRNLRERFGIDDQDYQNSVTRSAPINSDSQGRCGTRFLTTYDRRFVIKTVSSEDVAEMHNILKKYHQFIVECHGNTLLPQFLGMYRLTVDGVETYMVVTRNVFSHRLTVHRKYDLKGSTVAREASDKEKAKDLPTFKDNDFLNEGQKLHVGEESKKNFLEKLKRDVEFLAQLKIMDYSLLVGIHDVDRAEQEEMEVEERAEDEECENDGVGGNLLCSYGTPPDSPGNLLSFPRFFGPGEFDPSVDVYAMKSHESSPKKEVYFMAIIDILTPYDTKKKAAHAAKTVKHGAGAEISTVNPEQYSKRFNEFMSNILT
# Ribosomal protein S6 kinase alpha-3 (Homo sapiens), sequence (P51812 whole entry, the tested form may be a part): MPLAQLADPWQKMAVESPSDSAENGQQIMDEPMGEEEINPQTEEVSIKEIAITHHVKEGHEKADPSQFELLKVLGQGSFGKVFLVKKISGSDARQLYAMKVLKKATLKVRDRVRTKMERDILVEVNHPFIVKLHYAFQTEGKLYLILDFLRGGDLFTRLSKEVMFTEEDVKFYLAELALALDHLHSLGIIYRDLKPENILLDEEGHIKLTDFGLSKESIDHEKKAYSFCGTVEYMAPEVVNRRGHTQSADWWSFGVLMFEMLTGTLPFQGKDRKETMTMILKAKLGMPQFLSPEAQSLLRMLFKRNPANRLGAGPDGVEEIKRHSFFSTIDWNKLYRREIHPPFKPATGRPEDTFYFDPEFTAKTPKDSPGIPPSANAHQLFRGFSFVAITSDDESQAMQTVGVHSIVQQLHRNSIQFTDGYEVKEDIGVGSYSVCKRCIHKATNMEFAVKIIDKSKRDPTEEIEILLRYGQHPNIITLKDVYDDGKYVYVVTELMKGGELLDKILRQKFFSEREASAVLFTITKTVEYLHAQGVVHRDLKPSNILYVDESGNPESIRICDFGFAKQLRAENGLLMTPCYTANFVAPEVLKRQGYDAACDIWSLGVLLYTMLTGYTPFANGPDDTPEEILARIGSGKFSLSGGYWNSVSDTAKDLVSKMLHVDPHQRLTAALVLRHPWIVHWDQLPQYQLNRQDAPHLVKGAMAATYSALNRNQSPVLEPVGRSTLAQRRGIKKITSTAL
# Serine/threonine-protein kinase Nek6 (Homo sapiens), sequence (Q9HC98 whole entry, the tested form may be a part): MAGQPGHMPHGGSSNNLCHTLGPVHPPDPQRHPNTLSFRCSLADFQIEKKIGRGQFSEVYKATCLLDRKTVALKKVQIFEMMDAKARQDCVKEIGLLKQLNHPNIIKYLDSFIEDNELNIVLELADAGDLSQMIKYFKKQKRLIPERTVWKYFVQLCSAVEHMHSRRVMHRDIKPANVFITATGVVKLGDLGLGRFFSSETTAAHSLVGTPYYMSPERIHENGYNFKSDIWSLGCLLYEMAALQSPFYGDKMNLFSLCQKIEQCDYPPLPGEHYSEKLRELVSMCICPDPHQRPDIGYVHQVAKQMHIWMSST
compound,measurement,setting,value
CC(C)N1C(=O)C(NCCCN(C)C)=C(c2cn(C)c3ccccc23)C1=O.Cl,Activity,[1],94%
same,Activity,[2],92%
same,Activity,[3],93%
same,Activity,[4],100%
same,Activity,[5],87%
same,inhibition,[6],inactive
same,Activity,[7],93%
same,Activity,[8],100%
same,Activity,[9],100%
same,Activity,[10],100%
same,Activity,[11],100%
same,Activity,[12],100%
same,Activity,[13],96%
same,Activity,[14],85%
same,Activity,[15],100%
same,Activity,[16],100%
same,Activity,[17],92%
same,Activity,[18],91%
same,Activity,[19],82%
same,Activity,[20],97%
same,Activity,[21],87%
same,Activity,[22],96%
same,Activity,[23],88%
same,Activity,[24],100%
